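Protocol summary: plate cells (96-well), add compound at 5 concentrations, incubate 48 h, interpolate endpoints linearly. Here, GI50 denotes the concentration required for 50% inhibition of growth. TGI is the concentration that stops growth completely.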
test system: IGROV1 ovarian; test: NCI-60 cell line screen, 48 h

SMILES	TGI
O=C1c2cccc3cccc(c23)C(=O)N1CCCNCCCCNCCCNCCCN1C(=O)c2cccc3cccc(c23)C1=O	3.41 µM
O=c1onc2n1-c1cc(Cl)ccc1C(=S)N1CSCC21 (stereo unspecified)	> 100 µM
COc1cc(C2c3cc4c(cc3[C@@H](Nc3ccccc3)C3COC(=O)[C@H]23)OCO4)cc(OC)c1O (stereo partly specified)	17.5 µM
O=C(O)C(O)C(O)C(O)C(O)CO (stereo unspecified)	> 100 µM
CSc1nc2c(c(N(C)C)n1)C(O)n1c(nc3ccccc31)S2 (stereo unspecified)	> 100 µM
O=C1NC(O)CCN1C1OC(CO)C(O)C1O (stereo unspecified)	> 250 µM
COc1ccc(-c2nc3ccccc3c(=S)n2OC(C)=O)cc1	> 25 µM
C[C@@H]1CCC2[C@@H](C)[C@@H](O[C@H]3O[C@@H]4O[C@@]5(C)CCC6[C@H](C)CCC([C@H]3C)[C@]64OO5)O[C@@H]3O[C@@]4(C)CCC1[C@@]23OO4 (stereo partly specified)	> 25 µM
O=C(c1ccccc1)c1ccc2c(c1)NC(=O)c1ccccc1SSc1ccccc1C(=O)N2	> 100 µM
CC1=C(C#N)c2nc3ccccc3n2C(=O)C1(C)CCO (stereo unspecified)	> 100 µM
CCN(CC)c1ccc(/C=C/c2ccnc3ccccc23)cc1	> 100 µM
COc1ccc(C(=O)NCCN(C)C)c2nc3ccccc3cc12	6.18 µM
CC(C)(C)N=C(N)NC#N	> 100 µM
N#CC(c1ccccc1)N(CCOCCOCCN(C(=O)c1ccccc1)C(C#N)c1ccccc1)C(=O)c1ccccc1 (stereo unspecified)	> 100 µM
CN1CCN(Cc2cc3c(nn2)-c2ccccc2C3=O)CC1	> 100 µM
Cc1ccc(/C=C2/N=C(N/N=C\C(O)C(O)C(O)C(O)CO)NC2=O)cc1 (stereo unspecified)	> 100 µM
CCN(C(=O)N[C@@H](C)C(=O)N[C@@H](Cc1ccccc1)C(=O)OC)c1ccccc1	> 100 µM
O=C(CCSC1=NCCCN1)c1ccc(F)cc1	44.4 µM
Cn1c2ccccc2c2c(=S)c3ccccc3ccc21	> 100 µM
CCOc1c(OC)cc(-c2nc3n(n2)C(=O)C(CC)S3)cc1OC (stereo unspecified)	> 10 µM
CC1OC(O[C@H]2C3C=CO[C@@H](OC4OC(CO)C(O)C(O)C4O)C3[C@@]3(COC(=O)/C=C/c4ccccc4)O[C@@H]23)C(O)C(O)C1O (stereo partly specified)	> 100 µM
O=C1C(=Nc2ccc(Nc3ccccc3)cc2)Oc2ccccc21	5.96 µM
COc1ccc(CC(N)=O)cc1OC	> 1250 µM
CCOC(=O)CNC(=O)NC12CC3CC(CC(C3)C1)C2	> 550 µM
Cc1nc2ccccc2c(-n2cccn2)c1CCn1cccn1	> 100 µM
O=C(NCCCl)O/N=C/c1cccnc1	> 100 µM
COc1cc2c(cc1OCCCN1C(=O)c3cccc4cccc(c34)C1=O)N=C[C@@H]1CCCN1C2=O	31.5 µM
COC(=O)c1ccccc1CC1Cc2cccc(C)c2C1=O (stereo unspecified)	> 100 µM
COc1ccc(/C=N/NC(=O)c2ccc(O)c(CN(C)C)c2)cc1	> 100 µM

test system: K-562 leukemia; test: NCI-60 cell line screen, 48 h

SMILES	TGI	GI50
C=CC1(C)CC(=O)C2(O)C(C)(O1)C(OC(C)=O)C(O)C1C(C)(C)CCC(O)C12C (stereo unspecified)	> 150 µM	
CN1Cc2c(nc(-c3ccccc3)c[n+]2[O-])N(C)C1	> 100 µM	
C=C(CN(C)C)C(=O)c1ccc(C(=O)C(=C)CN(C)C)cc1	> 100 µM	
O[C@H]1[C@H](O)[C@@H](O)CN2CC[C@H](O)[C@H]12	> 100 µM	
O=C1c2cccc3cccc(c23)C(=O)N1CCCNCCCCNCCCNCCCN1C(=O)c2cccc3cccc(c23)C1=O	3.79 µM	
O=c1onc2n1-c1cc(Cl)ccc1C(=S)N1CSCC21 (stereo unspecified)	63.8 µM	
COc1cc(C2c3cc4c(cc3[C@@H](Nc3ccccc3)C3COC(=O)[C@H]23)OCO4)cc(OC)c1O (stereo partly specified)	9.32 µM	
O=C(O)C(O)C(O)C(O)C(O)CO (stereo unspecified)	> 100 µM	
CSc1nc2c(c(N(C)C)n1)C(O)n1c(nc3ccccc31)S2 (stereo unspecified)	> 100 µM	
O=C1NC(O)CCN1C1OC(CO)C(O)C1O (stereo unspecified)	> 250 µM	
COc1ccc(-c2nc3ccccc3c(=S)n2OC(C)=O)cc1	> 25 µM	
C[C@@H]1CCC2[C@@H](C)[C@@H](O[C@H]3O[C@@H]4O[C@@]5(C)CCC6[C@H](C)CCC([C@H]3C)[C@]64OO5)O[C@@H]3O[C@@]4(C)CCC1[C@@]23OO4 (stereo partly specified)	> 25 µM	
O=C(c1ccccc1)c1ccc2c(c1)NC(=O)c1ccccc1SSc1ccccc1C(=O)N2	> 100 µM	
CC1=C(C#N)c2nc3ccccc3n2C(=O)C1(C)CCO (stereo unspecified)	> 100 µM	
CCN(CC)c1ccc(/C=C/c2ccnc3ccccc23)cc1	> 100 µM	
COc1ccc(C(=O)NCCN(C)C)c2nc3ccccc3cc12	12.5 µM	
CC(C)(C)N=C(N)NC#N	> 100 µM	

SMILES	TGI	GI50
N#CC(c1ccccc1)N(CCOCCOCCN(C(=O)c1ccccc1)C(C#N)c1ccccc1)C(=O)c1ccccc1 (stereo unspecified)	> 100 µM	
CN1CCN(Cc2cc3c(nn2)-c2ccccc2C3=O)CC1	> 100 µM	
Cc1ccc(/C=C2/N=C(N/N=C\C(O)C(O)C(O)C(O)CO)NC2=O)cc1 (stereo unspecified)	> 100 µM	> 100 µM
CCN(C(=O)N[C@@H](C)C(=O)N[C@@H](Cc1ccccc1)C(=O)OC)c1ccccc1	> 100 µM	
O=C(CCSC1=NCCCN1)c1ccc(F)cc1	10.1 µM	
Cn1c2ccccc2c2c(=S)c3ccccc3ccc21	> 100 µM	
CCOc1c(OC)cc(-c2nc3n(n2)C(=O)C(CC)S3)cc1OC (stereo unspecified)	> 10 µM	
CC1OC(O[C@H]2C3C=CO[C@@H](OC4OC(CO)C(O)C(O)C4O)C3[C@@]3(COC(=O)/C=C/c4ccccc4)O[C@@H]23)C(O)C(O)C1O (stereo partly specified)	> 100 µM	
O=C1C(=Nc2ccc(Nc3ccccc3)cc2)Oc2ccccc21	11.4 µM	
COc1ccc(CC(N)=O)cc1OC	> 1250 µM	
CCOC(=O)CNC(=O)NC12CC3CC(CC(C3)C1)C2	> 550 µM	
Cc1nc2ccccc2c(-n2cccn2)c1CCn1cccn1	> 100 µM	
O=C(NCCCl)O/N=C/c1cccnc1	> 100 µM	
COc1cc2c(cc1OCCCN1C(=O)c3cccc4cccc(c34)C1=O)N=C[C@@H]1CCCN1C2=O	> 80.5 µM	
COC(=O)c1ccccc1CC1Cc2cccc(C)c2C1=O (stereo unspecified)	68.4 µM	
COc1ccc(/C=N/NC(=O)c2ccc(O)c(CN(C)C)c2)cc1	> 100 µM	

test system: KM20L2 colon; test: NCI-60 cell line screen, 48 h

SMILES	TGI	GI50
C=CC1(C)CC(=O)C2(O)C(C)(O1)C(OC(C)=O)C(O)C1C(C)(C)CCC(O)C12C (stereo unspecified)	> 150 µM	
CN1Cc2c(nc(-c3ccccc3)c[n+]2[O-])N(C)C1	> 100 µM	
C=C(CN(C)C)C(=O)c1ccc(C(=O)C(=C)CN(C)C)cc1	> 100 µM	
O[C@H]1[C@H](O)[C@@H](O)CN2CC[C@H](O)[C@H]12	> 100 µM	
COc1cc(C2c3cc4c(cc3[C@@H](Nc3ccccc3)C3COC(=O)[C@H]23)OCO4)cc(OC)c1O (stereo partly specified)	> 23.3 µM	
O=C1NC(O)CCN1C1OC(CO)C(O)C1O (stereo unspecified)	> 127 µM	
COc1ccc(CC(N)=O)cc1OC	> 1250 µM	
CCOC(=O)CNC(=O)NC12CC3CC(CC(C3)C1)C2	> 550 µM	
O=C(NCCCl)O/N=C/c1cccnc1	> 100 µM	> 100 µM

test system: M14 melanoma; test: NCI-60 cell line screen, 48 h

SMILES	TGI
CN1Cc2c(nc(-c3ccccc3)c[n+]2[O-])N(C)C1	> 100 µM
C=C(CN(C)C)C(=O)c1ccc(C(=O)C(=C)CN(C)C)cc1	> 100 µM
O=C1c2cccc3cccc(c23)C(=O)N1CCCNCCCCNCCCNCCCN1C(=O)c2cccc3cccc(c23)C1=O	3.64 µM

— PubChem BioAssay (NCI)
